From publication PMC7363588, “Mapping of the FGF14:Nav1.6 complex interface reveals FLPK as a functionally active peptide modulating excitability” (Physiological Reports, 2020)
“Also recorded” adds a separate entry of the source. Peptide text beside a SMILES is read from it.

Experiments:
FGF14:Nav1.6 complex = biological target: T1, FGF14:Nav1.6 complex (Homo sapiens, UniProt Q92915); experiment: Split-luciferase complementation assay (LCA), CLuc-FGF14 wild type; format: cell-based; details: for effect on FGF14:Nav1.6 complex formation: 50 µM, 12 hr, HEK293, % maximal luminescence vs DMSO, n = 6–10 independent experiments, FLPK, EYYV p < .01, PLEV p < .001
T1 construct: expressed in transfected cells; host or cells: HEK293, transient transfection
T1 sequence (Q92915 1-252 isoform Q92915-2): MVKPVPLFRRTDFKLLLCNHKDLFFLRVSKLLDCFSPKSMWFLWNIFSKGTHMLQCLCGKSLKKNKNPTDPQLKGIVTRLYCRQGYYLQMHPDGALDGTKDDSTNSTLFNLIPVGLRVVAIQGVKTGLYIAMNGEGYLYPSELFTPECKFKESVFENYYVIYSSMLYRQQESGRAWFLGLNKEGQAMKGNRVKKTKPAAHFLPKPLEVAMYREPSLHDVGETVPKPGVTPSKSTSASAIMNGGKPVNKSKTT
Source text: (§1) Plasmids used in this study derived from the following clones: human FGF14‐1b isoform (accession number: NM_175929.2) and human Nav1.6 (accession number: NM_014191.3). The CLuc‐FGF14, CD4‐Nav1.6‐NLuc, constructs and the pcDNA3.1 vector (Invitrogen, Carlsbad, CA) were engineered and characterized as previously described (Goetz et al., 2009; Shavkunov et al., 2012,2013,2015; Ali et al., 2016, 2018; Wadsworth et al., 2019). The plasmid pGL3 expressing full length Firefly (Photinus pyralis) luciferase was a gift from Dr. P. Sarkar (Department of Neurology, UTMB). For protein purification studies, cDNAs encoding FGF14‐1b (accession number NP_787125; aa 64–252) or the C‐terminal tail of Nav1.6 (accession number #NP_001171455; aa 1756–1939) were subcloned into suitable pET bacterial expression vectors (pET28a‐FGF14; pET30a‐Nav1.6) with a 6X His‐tag at the N‐terminal site; these plasmids were a gift of Dr. Moosa Mohammadi (NYU, Langone Medical Center). The mutation coding for FGF14^V160A was generated by site‐directed mutagenesis and PCR using FGF14‐1b as a template described previously (Ali et al., 2016). For electrophysiological studies FGF14‐GFP (human) and FGF14‐ΔNT‐GFP (human) were cloned into the GFP plasmid (pQBI‐fC2; Quantum Biotechnology Inc., Montreal, Canada) as previously described.
HEK293 cells were maintained in DMEM and F‐12 (Invitrogen, Carlsbad, CA), supplemented with 0.05% glucose, 0.5 mM pyruvate, 10% fetal bovine serum, 100 units/ml penicillin, and 100 µg/ml streptomycin (Invitrogen), and incubated at 37 °C with 5% CO2. HEK293 cells stably expressing the human Nav1.6 channel (hereafter referred to as HEK‐Nav1.6 cells) were maintained similarly except for the addition of 500 μg/ml G418 (Invitrogen) to maintain stable Nav1.6 expression. Cells were transfected at 80%–90% confluence with equal amount (1 μg each) of plasmid pairs using Lipofectamine 2000 (Invitrogen) according to manufacturer's instructions. HEK‐Nav1.6 cells were washed and replated at very low density prior to electrophysiological recordings (Ali et al., 2016, 2018; Scala et al., 2018; Wadsworth et al., 2019).
Twenty‐four hours after transfection, HEK293 cells were replated from the 24‐well plate using a 0.04% Trypsin:EDTA mixture dissolved in PBS. Suspended cells were centrifuged and seeded in white, clear‐bottom 96‐well tissue culture plates (Greiner Bio‐One) in 200 µl of medium. […] The bioluminescence reaction was initiated by dispensing 100 µl of D‐luciferin substrate (1.5 mg/ml dissolved in PBS) using a Synergy^TM H4 Multi‐Mode Micro plate Reader (Biotech, Winooski, VT). Luminescence readings were initiated after 3 s of mild plate shaking and performed at 2 min intervals for 20 min with integration times of 0.5 s. […]
To test the hypothesis that FLPK, PLEV and/or EYYV in cells could act as FGF14 inhibitors of the FGF14:Nav1.6 complex assembly, the complex was reconstituted using LCA (Ali et al., 2014, 2016; Hsu et al., 2015, 2017; Shavkunov et al., 2012,2013,2015; Wadsworth et al., 2019). HEK293 cells transfected with constructs expressing CLuc‐FGF14 and CD4‐Nav1.6 C‐tail‐NLuc in which luminescence is detected upon addition of the D‐luciferin substrate as a read‐out of protein binding (Figure 3). In‐cell binding of the reconstituted FGF14:Nav1.6 complex in the presence of vehicle (0.1% DMSO) is represented as summary bar graphs of percent maximal luminescence at 10–15 min of reaction time (Figure 3). […]

[1] = system: FGF14^V160A:Nav1.6 complex; experiment: LCA, CLuc-FGF14^V160A; format: cell-based, human; details: 50 µM peptide, 12 hr, HEK293, vs DMSO
Source text: as §1, with “For electrophysiological studies FGF14‐GFP (human) and FGF14‐ΔNT‐GFP (human) were cloned into the GFP plasmid (pQBI‐fC2; Quantum Biotechnology Inc., Montreal, Canada) as previously described.” left out
Twenty‐four hours after transfection, HEK293 cells were replated from the 24‐well plate using a 0.04% Trypsin:EDTA mixture dissolved in PBS. […] The bioluminescence reaction was initiated by dispensing 100 µl of D‐luciferin substrate (1.5 mg/ml dissolved in PBS) using a Synergy^TM H4 Multi‐Mode Micro plate Reader (Biotech, Winooski, VT). Luminescence readings were initiated after 3 s of mild plate shaking and performed at 2 min intervals for 20 min with integration times of 0.5 s. […]
To test the hypothesis that FLPK, PLEV and/or EYYV in cells could act as FGF14 inhibitors of the FGF14:Nav1.6 complex assembly, the complex was reconstituted using LCA (Ali et al., 2014, 2016; Hsu et al., 2015, 2017; Shavkunov et al., 2012,2013,2015; Wadsworth et al., 2019). HEK293 cells transfected with constructs expressing CLuc‐FGF14 and CD4‐Nav1.6 C‐tail‐NLuc in which luminescence is detected upon addition of the D‐luciferin substrate as a read‐out of protein binding (Figure 3). […]

[2] = system: FGF14^Y158A:Nav1.6 complex; experiment: LCA, CLuc-FGF14^Y158A; format: cell-based, human; details: 50 µM peptide, 12 hr, HEK293, vs DMSO
[3] = system: FGF14^Y158A/V160A:Nav1.6 complex; experiment: LCA, CLuc-FGF14^Y158A/V160A; format: cell-based, human; details: 50 µM peptide, 12 hr, HEK293, vs DMSO

Compound: CC(=O)N[C@@H](Cc1ccccc1)C(=O)N[C@@H](CC(C)C)C(=O)N1CCC[C@H]1C(=O)N[C@@H](CCCCN)C(N)=O [FLPK] (Ac-FLPK-NH2)
- effect on FGF14:Nav1.6 complex formation (FGF14:Nav1.6 complex): significant reduction of the FGF14:Nav1.6 complex formation; also recorded: weak inhibition
- IC50 (FGF14:Nav1.6 complex; HEK293 cells, FLPK 1, 10, 25, 50, 75, 100, 150, 250 µM, luminescence normalized to DMSO, apparent IC50, read-out: IC50, inhibition of FGF14:Nav1.6 complex formation): 58 µM
- efficacy in reducing FGF14:Nav1.6 complex formation (FGF14:Nav1.6 complex; dose-response (Figure 3f), compared to control conditions): above 50%
- effect on FGF14^V160A:Nav1.6 complex formation [1]: prevented the effect of FLPK and EYYV; also recorded: abolished
- effect on FGF14^Y158A:Nav1.6 complex formation [2]: abolished the effect of FLPK
- effect on FGF14^Y158A/V160A:Nav1.6 complex formation [3]: prevented the effect of FLPK and EYYV; also recorded: abolished

Compound: PLEV [tetrapeptide previously designed from FGF14:FGF14 dimer interface; docked with N-terminal acetylation and C-terminal amidation]
- effect on FGF14:Nav1.6 complex formation (FGF14:Nav1.6 complex): significant reduction of the FGF14:Nav1.6 complex formation
- effect on FGF14^V160A:Nav1.6 complex formation [1]: not PLEV
- effect on FGF14^Y158A:Nav1.6 complex formation [2]: increased the inhibition
- effect on FGF14^Y158A/V160A:Nav1.6 complex formation [3]: slight, but statistically significant increase; also recorded: not PLEV

Compound: EYYV [tetrapeptide previously designed from FGF14:FGF14 dimer interface; docked with N-terminal acetylation and C-terminal amidation]
- effect on FGF14:Nav1.6 complex formation (FGF14:Nav1.6 complex): significant reduction of the FGF14:Nav1.6 complex formation
- effect on FGF14^V160A:Nav1.6 complex formation [1]: prevented the effect of FLPK and EYYV; also recorded: abolished
- effect on FGF14^Y158A:Nav1.6 complex formation [2]: increased the inhibition
- effect on FGF14^Y158A/V160A:Nav1.6 complex formation [3]: prevented the effect of FLPK and EYYV; also recorded: abolished
